According to article PMC7496920, “Structure‐Activity Relationship of Phenylpyrazolones against Trypanosoma cruzi” (Chemmedchem, 2020):

What was measured:
MRC‐5 cells [1] = experiment: MRC‐5 cytotoxicity in vitro assay (resazurin); type: cell-based, human; conditions: for IC50: Homo sapiens, MRC5, 72 h, MRC‐5‐SV2 cytotoxicity, 72 h, SD ±0.2, n>=2, read-out: pIC50 MRC‐5 (converted)
Method: MRC‐5 cytotoxicity in vitro assay: MRC‐5‐SV2 cells, originally from a human diploid lung cell line, were cultivated in MEM, supplemented with L‐glutamine (20 mM), 16.5 mM sodium hydrogen carbonate and 5 % FCSi. For the assay, 10^4 cells/well were seeded onto the test plates containing the pre‐diluted sample and incubated at 37 °C and 5 % CO2 for 72 h. Cell viability was assessed fluorometrically 4 h after addition of resazurin (excitation 550 nm, emission 590 nm). The results are expressed as percentage reduction in cell viability compared to untreated controls. Tamoxifen was used as a reference compound.

[2] = test system: intracellular amastigotes of T. cruzi (Tulahuen strain); experiment: Trypanosoma cruzi in vitro susceptibility assay on intracellular amastigotes (β‐galactosidase strain); type: cell-based; conditions: for IC50: Trypanosoma cruzi, TULAHUEN, MRC-5 SV2, 168 h, intracellular amastigotes, Tulahuen CL2 β‐galactosidase strain in MRC‐5SV2 cells, 7 d, SD ±0.2, n>=2, read-out: pIC50 T. cruzi (converted); for SI (selectivity index): cytotoxicity (IC50, MRC‐5) divided by T. cruzi activity (IC50)
Method: Trypanosoma cruzi in vitro assay: Bloodstream trypomastigotes (BT) of the Y strain of T. cruzi were obtained by cardiac puncture of infected Swiss Webster mice on the parasitaemia peak.12 For the standard in vitro susceptibility assay on intracellular amastigotes, T. cruzi Tulahuen CL2, β‐galactosidase strain (DTU VI, nifurtimox‐sensitive) was used. The strain is maintained on MRC‐5SV2 (human lung fibroblast) cells in MEM medium, supplemented with […] L‐glutamine, 16.5 mM NaHCO3, and 5 % heat inactivated fetal calf serum (FCSi). […] The color reaction was read at 540 nm after 4 h, and absorbance values were expressed as a percentage of the blank controls. All cultures and assays are conducted at 37 °C under 5 % CO2.13 Benznidazole was used as a reference compound.

MRC‐5 cells [3] = test system: MRC‐5 cells; parameters: method as in earlier work; conditions: earlier hit optimization; cited from earlier work
[4] = test system: intracellular amastigotes of T. cruzi (Tulahuen strain); parameters: method as in earlier work; conditions: earlier hit optimization; cited from earlier work

In the case of `COc1ccc(-c2nc(-c3ccc(F)cc3)co2)cc1-c1cccnc1` [compound 123], the “MRC‐5 toxicity at 62 μM” value (MRC‐5 cells [1]; 62 μM, limit concentration screened) is reported as “no MRC‐5 toxicity”, the IC50 (MRC‐5 cells [1]) is reported as over 63.1 µM and the IC50 [2] is reported as 0.631 µM. For the same molecule, the “SI (selectivity index)” value [2] was over 100.
In the case of `COc1ccc(C2=Nn3c(C4CC4)nnc3C2(C)C)cc1-c1cccnc1` [compound 109], the IC50 (MRC‐5 cells [1]) is reported as over 63.1 µM, the IC50 [2] is reported as 15.8 µM and the “SI (selectivity index)” value [2] is reported as over 4.
For `COc1ccc(-c2nnc(C3CCCC3)o2)cc1-c1cccnc1` [compound 133], the IC50 (MRC‐5 cells [1]) was over 63.1 µM, the IC50 [2] was 10 µM and the “SI (selectivity index)” value [2] was over 6.
With `COc1ccc(-c2nnc(CC3CCOCC3)o2)cc1-c1cccnc1` [compound 134] the IC50 (MRC‐5 cells [1]) was over 63.1 µM, the IC50 [2] was 25.1 µM and the “SI (selectivity index)” value [2] was over 3.
In the case of `COc1ccc(C2=NN(C(C)C)C(=O)C23CCOCC3)cc1-c1cccnc1` [compound 92], the IC50 (MRC‐5 cells [1]) is reported as 31.6 µM, the IC50 [2] is reported as 31.6 µM and the “SI (selectivity index)” value [2] is reported as 1.
For `COc1ccc(-c2nc(C3CC3)cs2)cc1-c1cccnc1` [compound 141], the IC50 (MRC‐5 cells [1]) was 7.94 µM, the IC50 [2] was 2.51 µM and the “SI (selectivity index)” value [2] was 3.
In the case of `COc1c(Br)cc(C2=NN(C(C)C)C(=O)C2(C)C)cc1-c1cccnc1` [compound 60], the IC50 (MRC‐5 cells [1]) is reported as 25.1 µM, the IC50 [2] is reported as 7.94 µM and the “SI (selectivity index)” value [2] is reported as 3.
For `CC(C)N1N=C(c2ccc(F)c(-c3cccnc3)c2)C(C)(C)C1=O` [compound 62], the IC50 (MRC‐5 cells [1]) was over 63.1 µM, the IC50 [2] was about 3.16 µM and the “SI (selectivity index)” value [2] was over 10.
With `Cc1ccc(C2=NN(C(C)C)C(=O)C2(C)C)cc1-c1cccnc1` [compound 64] the IC50 (MRC‐5 cells [1]) was over 63.1 µM, the IC50 [2] was about 3.16 µM and the “SI (selectivity index)” value [2] was over 25.
For `CC(C)N1N=C(c2ccc(Cl)c(-c3cccnc3)c2)C(C)(C)C1=O` [compound 63], the IC50 (MRC‐5 cells [1]) was 15.8 µM, the IC50 [2] was about 3.16 µM and the “SI (selectivity index)” value [2] was 5.
For `COc1ccc(C2=NN(C(C)C)C(=O)C23CCN(C)CC3)cc1-c1cccnc1` [compound 91], the IC50 (MRC‐5 cells [1]) was 50.1 µM, the IC50 [2] was 31.6 µM and the “SI (selectivity index)” value [2] was 2.
In the case of `COc1ccc(C2=NN(C(C)C)C(=O)C2(C)C)cc1-c1cccnc1` [compound 3, 2‐isopropyl‐5‐(4‐methoxy‐3‐(pyridin‐3‐yl)phenyl)‐4,4‐dimethyl‐2,4‐dihydro‐3H‐pyrazol‐3‐one], the IC50 (MRC‐5 cells [1]) is given as 39.8 µM, the “pIC50 MRC‐5” value (MRC‐5 cells [3]) is given as 4.4 and the IC50 [2] is given as 0.398 µM. For the same molecule, the “SI (selectivity index)” value [2] was 100 and the “pIC50 T. cruzi” value [4] was 6.4.
With `COc1ccc(C2=NN(C(C)C)C(=O)C2(C)C)c(F)c1-c1cccnc1` [compound 65] the IC50 (MRC‐5 cells [1]) was over 63.1 µM, the IC50 [2] was 2.51 µM and the “SI (selectivity index)” value [2] was over 25.
In the case of `COc1ccc(-c2nnc(C(C)C)o2)cc1-c1cccnc1` [compound 132, 2‐Isopropyl‐5‐(4‐methoxy‐3‐(pyridin‐3‐yl)phenyl)‐1,3,4‐oxadiazole], the IC50 (MRC‐5 cells [1]) is reported as over 63.1 µM, the IC50 [2] is reported as 20 µM and the “SI (selectivity index)” value [2] is reported as over 3.
In the case of `COc1cc(C)c(C2=NN(C(C)C)C(=O)C2(C)C)cc1-c1cccnc1` [compound 68], the IC50 (MRC‐5 cells [1]) is reported as over 63.1 µM, the IC50 [2] is reported as 31.6 µM and the “SI (selectivity index)” value [2] is reported as over 2.
For `COc1cc(F)c(C2=NN(C(C)C)C(=O)C2(C)C)cc1-c1cccnc1` [compound 66], the IC50 (MRC‐5 cells [1]) was over 63.1 µM, the IC50 [2] was 5.01 µM and the “SI (selectivity index)” value [2] was over 13.
In the case of `COc1ccc(C2=NN(C(C)C)C(=O)CC2)cc1-c1cccnc1` [compound 104], the IC50 (MRC‐5 cells [1]) is reported as 25.1 µM, the IC50 [2] is reported as 10 µM and the “SI (selectivity index)” value [2] is reported as 3.
For `COc1c(C)cc(C2=NN(C(C)C)C(=O)C2(C)C)cc1-c1cccnc1` [compound 67], the IC50 (MRC‐5 cells [1]) was over 63.1 µM, the IC50 [2] was 12.6 µM and the “SI (selectivity index)” value [2] was over 5.
In the case of `CC(C)N1N=C(c2cccc(-c3cccnc3)c2)C(C)(C)C1=O` [compound 61], the IC50 (MRC‐5 cells [1]) is reported as 63.1 µM, the IC50 [2] is reported as 3.16 µM and the “SI (selectivity index)” value [2] is reported as 20.
Work on `COc1ccc(Cc2nnc(N)s2)cc1-c1cccnc1` [compound 98] yielded an IC50 (MRC‐5 cells [1]) of over 63.1 µM and an IC50 [2] of over 63.1 µM.
In the case of `COc1ccc(-c2nnc(-c3ccccc3)o2)cc1-c1cccnc1` [compound 135], the IC50 (MRC‐5 cells [1]) is reported as over 63.1 µM, the IC50 [2] is reported as about 1.58 µM and the “SI (selectivity index)” value [2] is reported as over 40.
In the case of `CC(C)N1N=C(c2cc3c(c(-c4cccnc4)c2)OCC3)C(C)(C)C1=O` [compound 59, 1‐Isopropyl‐4,4‐dimethyl‐3‐(7‐(pyridin‐3‐yl)‐2,3‐dihydrobenzofuran‐5‐yl)‐1H‐pyrazol‐5(4H)‐one], the IC50 (MRC‐5 cells [1]) is reported as 25.1 µM, the IC50 [2] is reported as 1.58 µM and the “SI (selectivity index)” value [2] is reported as 16.
In the case of `CC(C)N1N=C(c2ccc(C#N)c(-c3cccnc3)c2)C(C)(C)C1=O` [compound 74], the IC50 (MRC‐5 cells [1]) is reported as over 63.1 µM, the IC50 [2] is reported as 50.1 µM and the “SI (selectivity index)” value [2] is reported as over 1.
In the case of `COc1cc(C2=NN(C(C)C)C(=O)C2(C)C)cc(-c2cccnc2)c1OC` [compound 58], the IC50 (MRC‐5 cells [1]) is reported as over 63.1 µM, the IC50 [2] is reported as 50.1 µM and the “SI (selectivity index)” value [2] is reported as over 1.
`COc1ccc(-c2nc(-c3cccc(F)c3)co2)cc1-c1cccnc1` [compound 122] showed an IC50 [2] of 1.26 µM.
Molecule `COc1ccc(C2=NN(C(C)C)C(=O)C23CCCC3)cc1-c1cccnc1` [compound 89] has an IC50 (MRC‐5 cells [1]) of 31.6 µM and an IC50 [2] of 6.31 µM.
In the case of `COc1ccc(C2=NN(C(C)C)C(=S)C2(C)C)cc1-c1cccnc1` [compound 99], the IC50 (MRC‐5 cells [1]) is reported as 15.8 µM, the IC50 [2] is reported as 0.501 µM and the “SI (selectivity index)” value [2] is reported as 32.
For `COc1ccc(-c2nc(C(C)(C)C)co2)cc1-c1cccnc1` [compound 120, 4‐(tert‐Butyl)‐2‐(4‐methoxy‐3‐(pyridin‐3‐yl)phenyl)oxazole], the IC50 (MRC‐5 cells [1]) was under 6.31 µM, the IC50 [2] was 2 µM and the “SI (selectivity index)” value [2] was 3.
With `COc1cc(C2=NN(C(C)C)C(=O)C2(C)C)cc(-c2cccnc2)c1` [compound 57] the IC50 (MRC‐5 cells [1]) was 31.6 µM, the IC50 [2] was 7.94 µM and the “SI (selectivity index)” value [2] was 4.
With `COc1ccc(-c2cc3n(n2)CCO3)cc1-c1cccnc1` [compound 95] the IC50 (MRC‐5 cells [1]) was 50.1 µM, the IC50 [2] was 31.6 µM and the “SI (selectivity index)” value [2] was 2.
In the case of `COc1ccc(-c2nnc(-c3cccc(F)c3)o2)cc1-c1cccnc1` [compound 136], the IC50 (MRC‐5 cells [1]) is reported as over 63.1 µM, the IC50 [2] is reported as about 1.58 µM and the “SI (selectivity index)” value [2] is reported as over 32.
In the case of `COc1ccc(-c2nc(-c3ccccc3)c(C)o2)cc1-c1cccnc1` [compound 124], the IC50 (MRC‐5 cells [1]) is reported as under 6.31 µM, the IC50 [2] is reported as 2 µM and the “SI (selectivity index)” value [2] is reported as 3.
With `COc1ccc(-c2nc(-c3ccccc3)cs2)cc1-c1cccnc1` [compound 142] the IC50 (MRC‐5 cells [1]) was 2.51 µM, the IC50 [2] was 2 µM and the “SI (selectivity index)” value [2] was 1.
In the case of `COc1ccc(C2=NN(C(C)C)C(=O)C23CC=CC3)cc1-c1cccnc1` [compound 90], the IC50 (MRC‐5 cells [1]) is reported as 39.8 µM and the IC50 [2] is reported as 7.94 µM.
In the case of `COc1ccc(-c2nc(-c3ccccc3)co2)cc1-c1cccnc1` [compound 121], the IC50 (MRC‐5 cells [1]) is reported as under 6.31 µM, the IC50 [2] is reported as 1 µM and the “SI (selectivity index)” value [2] is reported as 3.
